Results as given in US7947742B2 (Civitas Therapeutics, Inc., priority 2002, dated 2011).
Read-outs that look alike come from different tables or passages of the source. Values belong to the compound of their own block, whether it stands above or below them.

What was measured:
[1] = Stability of epinephrine in dry powders with antioxidants, loosely capped vials (Example 10), HPLC; format: physicochemical; settings: 40° C. and 15% RH, compared to control containing no antioxidants
Excerpt: Solution preparation. […] The leucine and the antioxidant were present at a combined 82% of the total solids concentration. The two phases were static-mixed immediately prior to being spray dried.
Solutions containing BHT, Vitamin E and Vitamin C were made using a slightly different procedure as follows. […] Additional ethanol pure solvent was static-mixed with the 50/50 ethanol/water solution to form a 70/30 (v/v) ethanol/water solution. The Vitamin E formulation at the 0.3% and 0.9% loadings were prepared as follows. The Vitamin E at these levels was dissolved in the complete organic phase and static-mixed with the aqueous phase which prevented the Vitamin E from precipitating out of solution. Vitamin C was only dissolved in the aqueous phase at 0.9% and the three other powders containing vitamin C at 0.6, 0.9 and 2.0% was prepared with Vitamin C dissolved in the organic phase. Spray drying of all of the powders was performed as described for Formulation IX using the procedure of Example 7.
Stability conditions and analysis. 50 mg of powder was placed into a 7 mL scintillation vial. The vial was loosely capped and placed inside an oven at 40° C. and approximately 15% relative humidity (RH). Samples were analyzed immediately (T0) and after 1, 2, 4 and 8 weeks of such storage. Controls containing no antioxidants (i.e., Formulation IX) were also placed at 45° C. and 50° C. loosely capped.

[2] = Rat pharmacokinetics, plasma epinephrine after intratracheal insufflation or IM injection (Example 12); format: in vivo, Sprague Dawley rats; settings: rats, injected intramuscularly with epinephrine in solution, up to 20 minutes
Experimental: (§1) Blood samples were taken from the rats via jugular catheters at time points 0, 2.5, 5, 10, and 20 minutes following dosing. Measurements of heart rate were also made at the same time points.
Dose Administration. The powder was delivered to the lungs of rats by an insufflation technique. The insufflator device was from PennCentury (Philadelphia, Pa.). The delivery tube of the insufflator was inserted intratracheally through the mouth until the tip of the tube was about a centimeter from the carina (first bifurcation). […] The volume of […] used to deliver the powder from the sample chamber was 3 mL, which was achieved from a charged syringe. The syringe was recharged and discharged two more times for a total of three discharges per powder dose in order to decrease or eliminate powder residues in the sample chamber.
Study Design. The jugular vein of animals used in pharmacokinetics studies was catheterized with PE90 on the day before the dosing and sampling was performed. A total of six animals were used in this study. For anesthesia (catheter placement and powder dosing), a mixture of ketamine (25 mg), xylazine (3 mg), and acepromazine (0.2 mg) was injected intraperitoneally (IP) into each animal. […] Blood was taken and heart rate was measured using a pulse oximeter attached to the right hind limb of the rats at time 0, 2.5, 5.0, 10.0, and 20.0 minutes. […]

Male Sprague Dawley rats = assay: Rat heart rate by pulse oximeter after dosing (Example 12); format: in vivo
Experimental: as §1
Study Design. The jugular vein of animals used in pharmacokinetics studies was catheterized with PE90 on the day before the dosing and sampling was performed. A total of six animals were used in this study. For anesthesia (catheter placement and powder dosing), a mixture of ketamine (25 mg), xylazine (3 mg), and acepromazine (0.2 mg) was injected intraperitoneally (IP) into each animal. The rats were placed on a heating pad after catheter placement to recover. After powder dosing, the rats were placed back in their respective cages. Identification numbers assigned to the rats were written on their tails as well as on the cage cards. Blood was taken and heart rate was measured using a pulse oximeter attached to the right hind limb of the rats at time 0, 2.5, 5.0, 10.0, and 20.0 minutes. The blood samples were collected by syringe from the jugular vein catheter. The blood was carefully ejected into EDTA coated tubes, mixed and then centrifuged for 5 minutes at 14,000 g to separate the plasma from the cells. Plasma was placed into clean microfuge tubes and stored refrigerated until received at the laboratory. […]

[3] = Phase I human pharmacokinetics of single doses (Example 15); format: in vivo, humans
Experimental: The following example describes a clinical study evaluating inhaled dry powder porous particles containing epinephrine (Formulation VII, as described in Table A). The study was a Phase I, randomized, double blind, placebo-controlled, dose escalation study of the safety, tolerability and pharmacokinetics (PK) of single doses of dry powder epinephrine in healthy male subjects. […] Safety and PK information was obtained for at least 2 hours following dosing.

healthy male subjects = assay: Phase I human pharmacodynamics, potassium change from baseline (Example 15); format: in vivo, humans; settings: dry powder 800 micrograms, EpiPen 300 micrograms, standard IM 300 micrograms
Experimental: Safety and PK information was obtained for at least 2 hours following dosing.

- protection against degradation of epinephrine (in words) [1]: not effective antioxidants
Compound: Cc1cc(C(C)(C)C)c(O)c(C(C)(C)C)c1 [BHT, butylated hydroxytoluene]

- CMAX % CV ([3]; healthy male subjects, standard IM injection, 300 micrograms, n = 7): 66%
- Cmax ([3]; male, human, plasma, im, 300 micrograms, healthy male subjects, standard IM injection, 300 micrograms, n = 7, read-out: CMAX Mean (SD)): 0.263 ng/mL
- Tmax ([3]; male, human, plasma, im, 300 micrograms, healthy male subjects, standard IM injection, 300 micrograms, n = 7, read-out: TMAX (range)): 1 to 60 min
- Cmax ([3]; male, human, plasma, im, 300 micrograms, standard IM injection 300 micrograms, read-out: CMAX values of 2 subjects with higher values): 0.405 ng/mL
- Cmax ([3]; male, human, plasma, im, 300 micrograms, standard IM injection 300 micrograms, read-out: CMAX values of the others in the group): ≤ 0.22 ng/mL
- CMAX values of 2 subjects with higher values ([3]; standard IM injection 300 micrograms): 595 pg/mL
Compound: CNCC(O)c1ccc(O)c(O)c1 (centres unmarked) [Epinephrine, 4-[1-hydroxy-2-(methylamino)ethyl]-1,2-benzenediol]
- Plasma epinephrine levels (in words) [2]: very low and not significantly different from room air controls
- heart rate increase in one animal (Male Sprague Dawley rats; one rat intramuscularly injected, observed out to 40 minutes, 25 minutes following dosing): 340 beats/minute
- heart rate compared to baseline (in words) (Male Sprague Dawley rats; rats, IM-injected, up to 20 minutes): did not exhibit a significant increase in heart rate
- time of maximal potassium mean change from baseline (healthy male subjects): continued to decrease through 60 minutes post-dose

- protection against degradation of epinephrine (in words) [1]: not effective antioxidants
Compound: O=C1O[C@H]([C@@H](O)CO)C(O)=C1O [Ascorbic acid, ascorbic acid]

Compound: O=C(O)CN(CCN(CC(=O)O)CC(=O)O)CC(=O)O [EDTA, ethylenediamine tetra-acetic acid]
- protection against degradation of epinephrine (in words) [1]: good protection against degradation of epinephrine

Compound: O=S([O-])S(=O)(=O)[O-].[Na+].[Na+] [Sodium metabisulfite, sodium metabisulfite]
- protection against degradation of epinephrine (in words) [1]: good protection against degradation of epinephrine
